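Five concentrations, 48 hours, 96-well plates. The concentration for 50% growth inhibition is given as GI50. The concentration for full growth arrest is given as TGI.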
Each molecule was assayed on EKVX NSCLC (assay: inhibition of tumour cell growth, NCI panel, 48 h).

For `C[C@@H]1O[C@@H](OC[C@H]2O[C@@H](OCCc3ccc(O)c(O)c3)[C@H](O)[C@@H](O)[C@@H]2OC(=O)/C=C/c2ccc(O)c(O)c2)[C@H](O)[C@H](O)[C@H]1O`, the GI50 was > 100 µM.

Compared with `C[C@@H]1O[C@@H](OC[C@H]2O[C@@H](OCCc3ccc(O)c(O)c3)[C@H](O)[C@@H](O)[C@@H]2OC(=O)/C=C/c2ccc(O)c(O)c2)[C@H](O)[C@H](O)[C@H]1O`, `COc1ccc(C(Cl)=C(c2ccc(OCCN(C)C)cc2)c2ccc(OCCN(C)C)cc2)cc1` is lower in TGI: > 100 µM for the first, 18.1 µM for the second.

`Cc1cc(N(CCC#N)CCC#N)ccc1/C=C1/N=C(c2ccccc2)N(N)C1=O` and `CCOC1=C2N=C(Cc3ccccc3F)N=C2C(=O)c2ccccc21` cannot be ordered by TGI: > 100 µM for the first, > 100 µM for the second.

Compared with `CNS(=O)(=O)NNS(=O)(=O)c1ccc(Cl)cc1`, `O=C(O)/C(Cl)=C(\Cl)C(=O)Nc1ccc(Cl)c(Cl)c1Cl` is lower in TGI: > 100 µM for the first, 37.1 µM for the second.

Going from `C=C1CCC2[C@@H](CCC3[C@]2(C)CCC[C@]3(C)C(=O)OC)[C@@H]1CC=O` (some centres undefined) to `CC1(C)C2CCC13CS(=O)(=O)N1O[C@]13C(=O)O2` (some centres undefined), the TGI rises from 77.6 µM to > 100 µM.

`CCCCCCCCCCCCCP(=O)(O)NCC(N)=O` and `CCCCCCN(N)C(=O)CC#N` cannot be ordered by TGI: > 100 µM for the first, > 100 µM for the second.

`CN1COc2c(n(C)c(=O)[nH]c2=O)C1` and `CC1(C)OCC(C(O)C2OC(C)(C)OC2/C=N\O)O1` (centres undefined) cannot be ordered by TGI: > 100 µM for the first, > 100 µM for the second.

What follows are molecules tested on UO-31 renal (assay: inhibition of tumour cell growth, NCI panel, 48 h).

First: Cc1nc2ccccc2c(/C=C/c2ccc(Br)cc2)c1C(=O)/C=C/c1ccccc1
Second: N#Cc1ccc(N=Cc2c([O-])ccc3ccccc23)cc1.[C-]#[O+].[C-]#[O+].[Ir]
The GI50 of the first is 11-fold lower: 1.21 µM for the first, 13.2 µM for the second.

`O=c1[nH]cnc2c(C3NC(CO)C(O)C3O)c[nH]c12` (centres undefined) and `C[C@@H]1O[C@@H](OC[C@H]2O[C@@H](OCCc3ccc(O)c(O)c3)[C@H](O)[C@@H](O)[C@@H]2OC(=O)/C=C/c2ccc(O)c(O)c2)[C@H](O)[C@H](O)[C@H]1O` cannot be ordered by GI50: > 100 µM for the first, > 100 µM for the second.

`C=C1CCC2[C@@H](CCC3[C@]2(C)CCC[C@]3(C)C(=O)OC)[C@@H]1CC=O` (some centres undefined) was tested, and the GI50 was 31.3 µM.

First: Cc1nc2ccccc2c(/C=C/c2ccc(Br)cc2)c1C(=O)/C=C/c1ccccc1
Second: CC1CN1c1c(C(=O)/C=C/c2ccccc2)c(-c2ccccc2)nn(C)c1=O (centres undefined)
The TGI of the first is 12-fold lower: 2.44 µM for the first, 29.1 µM for the second.

Going from `c1ccc(P(=Nc2ccccc2N=P(c2ccccc2)(c2ccccc2)c2ccccc2)(c2ccccc2)c2ccccc2)cc1` to `CCOC1=C2N=C(Cc3ccccc3F)N=C2C(=O)c2ccccc21`, the TGI rises from 6.35 µM to > 100 µM.

Going from `COCCOCOc1ccc(OCOCCOC)c2c1C(=O)c1ccccc1C2=O` to `Cc1cc2c(c(C(=O)O)c1C)-c1cccc(F)c1C2=O`, the TGI falls from > 100 µM to 66.1 µM.

`CCO/C=C1\N=C(c2ccccc2Br)OC1=O` and `Cc1cc(N(CCC#N)CCC#N)ccc1/C=C1/N=C(c2ccccc2)N(N)C1=O` cannot be ordered by TGI: > 100 µM for the first, > 100 µM for the second.

Going from `CCOC(=O)C(=O)Nc1cc(Cl)ccc1Cl` to `O=C(O)/C(Cl)=C(\Cl)C(=O)Nc1ccc(Cl)c(Cl)c1Cl`, the TGI falls from > 100 µM to 30 µM.

Going from `N#Cc1ccc(N=Cc2c([O-])ccc3ccccc23)cc1.[C-]#[O+].[C-]#[O+].[Ir]` to `CN(C)c1ccc(/C=C2\C=Cc3ccccc32)cc1`, the TGI rises from 26.1 µM to > 100 µM.

`[N-]=[N+]=C1C(=O)C2CC3CC(C2)CC1C3` and `Cc1ccc(S(=O)OC2C3CC4CC(C3)CC2C4)cc1` (centres undefined) cannot be ordered by TGI: > 100 µM for the first, > 100 µM for the second.

`COC(=O)CC1NC(=O)C1C1(C)OCCO1` (centres undefined) and `C=C1CCC2[C@@H](CCC3[C@]2(C)CCC[C@]3(C)C(=O)OC)[C@@H]1CC=O` (some centres undefined) cannot be ordered by TGI: > 100 µM for the first, > 100 µM for the second.

Compared with `COC(CN1C=C(Sc2ccccc2)CC1)OC`, `CN(C)CCC(/C=C/c1ccccc1)=N\Nc1ccc(Cl)cc1Cl` is lower in TGI: > 100 µM for the first, 6.5 µM for the second.

Compared with `COc1ccc(C=O)c(NC(=O)C(C)C)c1`, `COc1ccc(-c2cc(=O)c3c(OC)c(OC)c(OC)c(OC)c3o2)cc1` is higher in TGI: 82.6 µM for the first, > 100 µM for the second.

First: COc1cc2nc(NCCCCCNC(=O)c3ccco3)nc(N)c2cc1OC
Second: COc1ccc(C(Cl)=C(c2ccc(OCCN(C)C)cc2)c2ccc(OCCN(C)C)cc2)cc1
The TGI of the first is higher: > 100 µM for the first, 3.31 µM for the second.

Going from `C/C=C(\C)c1cc(O)c(C)c2c1Oc1cc(O)c(Cl)c(C)c1C(=O)O2` to `C[C@@H]1O[C@@H](OC[C@H]2O[C@@H](OCCc3ccc(O)c(O)c3)[C@H](O)[C@@H](O)[C@@H]2OC(=O)/C=C/c2ccc(O)c(O)c2)[C@H](O)[C@H](O)[C@H]1O`, the TGI rises from 27.2 µM to > 100 µM.

`COC(=O)C(C)(C)N=CN(C)C` and `CC1(C)OCC(C(O)C2OC(C)(C)OC2/C=N\O)O1` (centres undefined) cannot be ordered by TGI: > 100 µM for the first, > 100 µM for the second.

`O=c1[nH]cnc2c(C3NC(CO)C(O)C3O)c[nH]c12` (centres undefined) and `CN1COc2c(n(C)c(=O)[nH]c2=O)C1` cannot be ordered by TGI: > 100 µM for the first, > 100 µM for the second.

`CNS(=O)(=O)NNS(=O)(=O)c1ccc(Cl)cc1` and `CC1(C)C2CCC13CS(=O)(=O)N1O[C@]13C(=O)O2` (some centres undefined) cannot be ordered by TGI: > 100 µM for the first, > 100 µM for the second.

Compared with `CCCCCCCCCCCCCP(=O)(O)NCC(N)=O`, `CCCCCCN(N)C(=O)CC#N` is higher in TGI: 90.4 µM for the first, > 100 µM for the second.

These molecules were tested on CCRF-CEM leukemia (assay: inhibition of tumour cell growth, NCI panel, 48 h).

In order of falling GI50:
1. N#Cc1ccc(N=Cc2c([O-])ccc3ccccc23)cc1.[C-]#[O+].[C-]#[O+].[Ir]  1670 nM
2. Cc1nc2ccccc2c(/C=C/c2ccc(Br)cc2)c1C(=O)/C=C/c1ccccc1  1480 nM

First: Cc1nc2ccccc2c(/C=C/c2ccc(Br)cc2)c1C(=O)/C=C/c1ccccc1
Second: CC1CN1c1c(C(=O)/C=C/c2ccccc2)c(-c2ccccc2)nn(C)c1=O (centres undefined)
The TGI of the first is higher: > 100 µM for the first, 37.9 µM for the second.

Going from `c1ccc(P(=Nc2ccccc2N=P(c2ccccc2)(c2ccccc2)c2ccccc2)(c2ccccc2)c2ccccc2)cc1` to `O=P1(Oc2ccccc2)C(c2ccccc2)C(c2ccccc2)=NN1c1ccccc1` (centres undefined), the TGI rises from 13 µM to > 100 µM.

`COCCOCOc1ccc(OCOCCOC)c2c1C(=O)c1ccccc1C2=O` and `CCOC1=C2N=C(Cc3ccccc3F)N=C2C(=O)c2ccccc21` cannot be ordered by TGI: > 100 µM for the first, > 100 µM for the second.

`CCO/C=C1\N=C(c2ccccc2Br)OC1=O` and `Cc1cc(N(CCC#N)CCC#N)ccc1/C=C1/N=C(c2ccccc2)N(N)C1=O` cannot be ordered by TGI: > 100 µM for the first, > 100 µM for the second.

`CCOC(=O)C(=O)Nc1cc(Cl)ccc1Cl` and `O=C(O)/C(Cl)=C(\Cl)C(=O)Nc1ccc(Cl)c(Cl)c1Cl` cannot be ordered by TGI: > 100 µM for the first, > 100 µM for the second.

Compared with `N#Cc1ccc(N=Cc2c([O-])ccc3ccccc23)cc1.[C-]#[O+].[C-]#[O+].[Ir]`, `CN(C)c1ccc(/C=C2\C=Cc3ccccc32)cc1` is higher in TGI: 7.1 µM for the first, > 100 µM for the second.

Going from `[N-]=[N+]=C1C(=O)C2CC3CC(C2)CC1C3` to `C=C1CCC2[C@@H](CCC3[C@]2(C)CCC[C@]3(C)C(=O)OC)[C@@H]1CC=O` (some centres undefined), the TGI falls from > 100 µM to 64.2 µM.

Going from `COC(CN1C=C(Sc2ccccc2)CC1)OC` to `CN(C)CCC(/C=C/c1ccccc1)=N\Nc1ccc(Cl)cc1Cl`, the TGI falls from 62.8 µM to 25.8 µM (2.4-fold).

`COc1ccc(C=O)c(NC(=O)C(C)C)c1` and `Cc1cc2c(c(C(=O)O)c1C)-c1cccc(F)c1C2=O` cannot be ordered by TGI: > 10 µM for the first, > 100 µM for the second.

Going from `COc1ccc(-c2cc(=O)c3c(OC)c(OC)c(OC)c(OC)c3o2)cc1` to `COc1ccc(C(Cl)=C(c2ccc(OCCN(C)C)cc2)c2ccc(OCCN(C)C)cc2)cc1`, the TGI falls from > 100 µM to 3.83 µM.

Going from `COc1cc2nc(NCCCCCNC(=O)c3ccco3)nc(N)c2cc1OC` to `CCCCCCN(N)C(=O)CC#N`, the TGI rises from 88.2 µM to > 100 µM.

`COC(=O)C(C)(C)N=CN(C)C` and `CC1(C)OCC(C(O)C2OC(C)(C)OC2/C=N\O)O1` (centres undefined) cannot be ordered by TGI: > 100 µM for the first, > 100 µM for the second.

`CNS(=O)(=O)NNS(=O)(=O)c1ccc(Cl)cc1` and `CN1COc2c(n(C)c(=O)[nH]c2=O)C1` cannot be ordered by TGI: > 100 µM for the first, > 100 µM for the second.

For `CCCCCCCCCCCCCP(=O)(O)NCC(N)=O`, the TGI was > 100 µM.

From PubChem BioAssay (NCI)
